Assay results taken from US11253497B2, “Use of derivatives of polyunsaturated fatty acids as medicaments” (Lipopharma Therapeutics, S.L., priority 2009, dated 2022).

Key:
lung cancer cells A549 = experiment: Growth of lung cancer cells A549 (IC50); format: cell-based, human; settings: 72 hours of incubation
Procedure: (§1) For the experiments shown in FIG. 1, cultured human Non Small Cell Lung Cancer cells (A549) in RPMI 1640 were used, supplemented with 10% foetal bovine serum and antibiotics, at 37° C. and 5% CO2. […] After treatment, cell count was performed and the study of the mechanisms involved in the antitumor activity of compounds was evaluated by flow cytometry. […] These values correspond to averages of three independent experiments.
(§2) These charts show the antitumor efficacy of the compounds of this invention against the growth of breast cancer cells, brain (glioma), and lung cancer. […] The other experimental conditions are identical to those described in the preceding paragraph.

[1] = system: breast cancer cells MDA-MB-231; experiment: Growth of breast cancer cells MDA-MB-231; format: cell-based; settings: 72 hours of incubation
Procedure: as §1, §2

[2] = Lamellar-to-hexagonal (HII) transition temperature in DEPE model membranes by Differential Scanning Calorimetry; format: physicochemical; settings: DEPE membranes, DEPE:D-PUFA 10:1 (mol:mol)
Procedure: The transition temperature was determined by Differential Scanning Calorimetry. The proportion DEPE:D-PUFA was 10:1 (mol:mol) in all cases. Lamellar-to-hexagonal transition is an important parameter that reflects relevant signalling properties of cell membranes. […] When this occurs, certain peripheral membrane proteins (such as G proteins, protein kinase C or Ras protein) can more easily bind to the membrane, while others have a poor interaction (e.g., the Gα-protein), so changes in the HII transition temperature are important in regulating cellular functions related to health and human therapy (Escriba et al., 1995, Vogler et al., 2004; Escriba, 2006).
Control values correspond to model membranes in the absence of fatty acids. The reduction in HII transition temperature obtained by using the D-PUFA of the invention indicates an increased induction of membrane discontinuities, generating anchoring sites in the membrane for peripheral proteins and leads to better regulation of cell signalling and, therefore, greater effectiveness in the control of certain diseases.

[3] = system: brain cancer cell (glioma) U118; experiment: Brain cancer (glioma) U118 cell growth; format: cell-based; settings: 72 hours of incubation
Procedure: For the experiments shown in FIG. 1, cultured human Non Small Cell Lung Cancer cells (A549) in RPMI 1640 were used, supplemented with 10% foetal bovine serum and antibiotics, at 37° C. and 5% CO2. Cells were maintained in culture for 48 hours in the presence or absence of D-PUFAs and PUFAs indicated in Table 2 at a concentration of 250 µM. After treatment, cell count was performed and the study of the mechanisms involved in the antitumor activity of compounds was evaluated by flow cytometry. […] These values correspond to averages of three independent experiments.
as §2

[4] = system: Spontaneously Hypertensive Rats (SHR); experiment: Blood pressure of SHR rats (cuff-tail method); format: in vivo, rat; settings: 200 mg/kg day p.o., 30 days, before treatment 214 mmHg
Procedure: (§3) In a separate experimental series, it was studied the effect of D-PUFA molecules of the present invention on blood pressure of SHR rats. In these animals both, blood pressure and levels of apolipoprotein AI (apoA-I) were measured. For these experiments Spontaneously Hypertensive Rats (SHR) were treated for 30 days with vehicle (water control) or compounds of the invention (200 mg/kg day, p.o.). At the end of this period, the animals' blood pressure and serum levels of apoA-I were measured. […] For these experiments, non-invasive methods for determining blood pressure (cuff-tail method) and gene expression for apoA-I (RT-PCR) described in the literature (Terés et al., 2008) were used. The usefulness of the molecules of the present invention for the treatment of cardiovascular diseases is reinforced by its capacity for reducing the levels of serum cholesterol and triglycerides (see below).
(§4) The average values of SHR before treatment were 214 mmHg and 100% respectively.

[5] = system: apolipoprotein AI (apoA-I); experiment: Levels of apoA-I in SHR rats (RT-PCR); format: in vivo, rat; settings: 200 mg/kg day p.o., 30 days, before treatment 100%
Procedure: as §3, §4

SMILES	IC50 (lung cancer cells A549) [µM]	IC50 [1] [µM]	Temperature of lamellar-to-hexagonal transition [2] [°C]	IC50 [3] [µM]	Blood pressure [4] [mm Hg]	Levels of apoA-I [5] [%]
CCCCCC=CCC=CCCCCCCC(O)C(=O)OC (stereo not drawn) [182D1]	541	277	51	221	–	–
CCCCCC=CCC=CCCCCCCC(O)C(=O)OCC (stereo not drawn) [182E1]	387	289	50.6	213	–	–
CCCCCC=CCC=CCCCCCCC(OC)C(=O)O (stereo not drawn) [182G1]	439	378	51	205	–	–
CCCCCC=CCC=CCCCCCCC(Cl)C(=O)OCC (stereo not drawn) [182O1]	452	286	51.7	–	–	–
CCCCCC=CCC=CCCCCCCC(CO)C(=O)O (stereo not drawn) [182P1]	328	419	–	–	202	184
CCCCCC=CCC=CCCCCCCC(OP(=O)(OCC)OCC)C(=O)OCC (stereo not drawn) [182R1]	317	371	52.2	255	–	–
CCC=CCC=CCC=CCCCCCCC(O)C(=O)OC (stereo not drawn) [183D1]	326	245	51.1	–	–	–
CCCCCC=CCC=CCC=CCCCC(O)C(=O)OC (stereo not drawn) [183D2]	267	175	49.4	385	–	–
CCC=CCC=CCC=CCCCCCCC(O)C(=O)OCC (stereo not drawn) [183E1]	294	319	49.8	–	–	–
CCCCCC=CCC=CCC=CCCCC(O)C(=O)OCC (stereo not drawn) [183E2]	243	193	49.3	–	–	–
CCC=CCC=CCC=CCCCCCCC(OC)C(=O)O (stereo not drawn) [183G1]	273	364	50.3	329	–	–
CCCCCC=CCC=CCC=CCCCC(OC)C(=O)O (stereo not drawn) [183G2]	295	159	50.1	394	–	–
CCC=CCC=CCC=CCCCCCCC(Cl)C(=O)OCC (stereo not drawn) [183O1]	344	267	51.2	370	–	–
CCCCCC=CCC=CCC=CCCCC(Cl)C(=O)OCC (stereo not drawn) [183O2]	318	217	51.3	–	–	–
CCC=CCC=CCC=CCCCCCCC(CO)C(=O)O (stereo not drawn) [183P1]	317	349	–	285	201	178
CCC=CCC=CCC=CCCCCCCC(OP(=O)(OCC)OCC)C(=O)OCC (stereo not drawn) [183R1]	258	305	51.8	307	–	–
CCCCCC=CCC=CCC=CCCCC(OP(=O)(OCC)OCC)C(=O)OCC (stereo not drawn) [183R2]	274	172	49.9	454	–	–
CCCCCC=CCC=CCC=CCC=CCCC(O)C(=O)OC (stereo not drawn) [204D1]	372	281	48.7	311	–	–

SMILES	IC50 (lung cancer cells A549) [µM]	IC50 [1] [µM]	Temperature of lamellar-to-hexagonal transition [2] [°C]	IC50 [3] [µM]	Blood pressure [4] [mm Hg]	Levels of apoA-I [5] [%]
CCCCCC=CCC=CCC=CCC=CCCC(O)C(=O)OCC (stereo not drawn) [204E1]	475	299	48.4	224	–	–
CCCCCC=CCC=CCC=CCC=CCCC(OC)C(=O)O (stereo not drawn) [204G1]	427	372	49.6	342	–	–
CCCCCC=CCC=CCC=CCC=CCCC(Cl)C(=O)OCC (stereo not drawn) [204O1]	461	298	49.7	–	–	–
CCCCCC=CCC=CCC=CCC=CCCC(OP(=O)(OCC)OCC)C(=O)OCC (stereo not drawn) [204R1]	364	285	50	501	–	–
CCC=CCC=CCC=CCC=CCC=CCCC(O)C(=O)OC (stereo not drawn) [205D1]	364	2	47.5	467	–	–
CCC=CCC=CCC=CCC=CCC=CCCC(O)C(=O)OCC (stereo not drawn) [205E1]	413	284	46.7	513	–	–
CCC=CCC=CCC=CCC=CCC=CCCC(OC)C(=O)O (stereo not drawn) [205G1]	407	219	47.3	426	–	–
CCC=CCC=CCC=CCC=CCC=CCCC(Cl)C(=O)OCC (stereo not drawn) [205O1]	418	264	48.6	–	–	–
CCC=CCC=CCC=CCC=CCC=CCCC(OP(=O)(OCC)OCC)C(=O)OCC (stereo not drawn) [205R1]	417	245	48.4	468	–	–
CCC=CCC=CCC=CCC=CCC=CCC=CCC(O)C(=O)OC (stereo not drawn) [226D1]	221	224	43.9	241	–	–
CCC=CCC=CCC=CCC=CCC=CCC=CCC(O)C(=O)OCC (stereo not drawn) [226E1]	209	207	42.9	265	–	–
CCC=CCC=CCC=CCC=CCC=CCC=CCC(OC)C(=O)O (stereo not drawn) [226G1]	273	213	44.1	278	–	–
CCC=CCC=CCC=CCC=CCC=CCC=CCC(OC)C(=O)OC (stereo not drawn) [226H1]	247	199	–	294	–	–
CCC=CCC=CCC=CCC=CCC=CCC=CCC(OC)C(=O)OCC (stereo not drawn) [226I1]	298	241	–	327	–	–
CCC=CCC=CCC=CCC=CCC=CCC=CCC(C)C(=O)OC (stereo not drawn) [226M1]	208	267	–	306	–	–
CCC=CCC=CCC=CCC=CCC=CCC=CCC(CO)C(=O)OCC (stereo not drawn) [226Q1]	252	263	–	254	–	–
CCC=CCC=CCC=CCC=CCC=CCC=CCC(F)C(=O)OCC (stereo not drawn) [226T1]	243	199	–	263	–	–
